Values quoted from earlier work as cited in paper PMC11369081, “Molecular mechanism of prolactin-releasing peptide recognition and signaling via its G protein-coupled receptor” (Cell Discovery, 2024).
Ends that are not written are not given here.

Tested on: PrRPR
Conditions: cited from earlier work
Protocol: In both structures, the intramolecular motif of W8, Y9, and R12 within PrRP20 stabilizes its α-helical structure (Fig. 2h). […] Th ...

For “C-terminal heptapeptide (I14–F20): shortest effective analog is a C-terminal heptapeptide (I14–F20) (IRPVGRF; ends and bridges not checked; UniProt P81277 47-53, looked up, fragment)”, the “affinity of shortest effective analog” value (deletion analysis of PrRP20 N-terminal region, vs PrRP20, ref [9]) is given as “substantially lower affinity”.
For “PrRP20 analog (W8–F20): PrRP20 analog (W8–F20) (WYASRGIRPVGRF; ends and bridges not checked; UniProt P81277 41-53, looked up, fragment)”, the activity in vitro (structure-activity relationship studies, ref [21]) is given as “did not show reduced activity in vitro”.
